The subject of one experiment is K562/A02. Put plainly: Cytotoxicity against P-gp overexpressing human K562/A02 cells incubated for 48 hrs by MTT assay. The experiment is classed as functional, cell-based. Particulars: K562/A02, 48 h. (In general: Tetrazolium dyes change colour on reduction, which living cells bring about.)
Experiment [1] concerns MDCK-II. Put plainly: cells. Particulars: Canis lupus familiaris, 48 h.
Experiment [2] concerns MDCK-II. Kind of experiment: cells. To be noted: Canis lupus familiaris, 48 h. The source holds these as a separate data set.
Experiment [3] has as its system K562. Kind of experiment: cells. Particulars: Homo sapiens, K562, 48 h, read-out: Activity.
Experiment [4] relates to K562. Put plainly: Cytotoxicity against human K562 cells incubated for 48 hrs by MTT assay. The experiment is classed as functional, cell-based. To be noted: K562, 48 h.

pIC50: −log10 of the molar value. Some results are limits rather than exact numbers.

By pIC50 is commonly meant −log10 of the IC50, conventionally taken in molar units. Read a high pIC50 as a low IC50. `Cc1ccc(NC(=O)c2ccc(CN3CCN(C)CC3)cc2)cc1Nc1nccc(-c2cccnc2)n1` [IMATINIB]: the pIC50 in the experiment with K562/A02 was 4.12; in the experiment on MDCK-II [1], 4.18; in the experiment with MDCK-II [2], under 4.00; in the experiment with K562 [4], 4.06. Further, in the experiment on K562 [3], the viability at 5 µM turned out to be 81.6%.

(Values after ChEMBL document CHEMBL4808186, “Structure-Based Discovery of Pyrimidine Aminobenzene Derivatives as Potent Oral Reversal Agents against P-gp- and BCRP-Mediated Multidrug Resistance” (J Med Chem, 2021).)
